Laboratory results reported in publication PMC4450297, “Screening Active Compounds from Garcinia Species Native to China Reveals Novel Compounds Targeting the STAT/JAK Signaling Pathway” (BioMed Research International, 2015).

Tested on: A498
Experiment: Cell panel screen (CellTiter-Glo)
Format: cell-based, human
Settings: A498 (listed under Lung), 20 micromolar, 72 hrs
In short: (§1)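 ATCC lines in supplier media with 10% FBS, seeded and cultured overnight at 37° C., then exposed to compound at 20 μM final for 72 h. CellTiter-Glo luminescence; % growth inhibition relative to DMSO-treated controls after subtracting cell-free background.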

| Compound | Percent Inhibition |
| --- | --- |
| O=c1c2cc(O)c(O)cc2oc2cc(O)cc(O)c12 [Ge-17] | 41% |

Tested on: J82
Experiment: Cell panel screen (CellTiter-Glo)
Format: cell-based, human
Settings: J82 (Urinary bladder), 20 micromolar, 72 hrs
In short: as §1

| Compound | Percent Inhibition |
| --- | --- |
| O=c1c2cc(O)c(O)cc2oc2cc(O)cc(O)c12 [Ge-17] | 47% |

Tested on: HPAF-II
Experiment: Cell panel screen (CellTiter-Glo)
Format: cell-based, human
Settings: HPAF-II (Pancreas), 20 micromolar, 72 hrs
In short: as §1

| Compound | Percent Inhibition |
| --- | --- |
| O=c1c2cc(O)c(O)cc2oc2cc(O)cc(O)c12 [Ge-17] | 13% |

Tested on: NCI-H2405
Experiment: Cell panel screen (CellTiter-Glo)
Format: cell-based, human
Settings: NCI-H2405 (Lung), 20 micromolar, 72 hrs
In short: as §1

| Compound | Percent Inhibition |
| --- | --- |
| O=c1c2cc(O)c(O)cc2oc2cc(O)cc(O)c12 [Ge-17] | -5% |

Tested on: NCI-H1623
Experiment: Cell panel screen (CellTiter-Glo)
Format: cell-based, human
Settings: NCI-H1623 (Lung), 20 micromolar, 72 hrs
In short: as §1

| Compound | Percent Inhibition |
| --- | --- |
| O=c1c2cc(O)c(O)cc2oc2cc(O)cc(O)c12 [Ge-17] | 2% |

Tested on: A704
Experiment: Cell panel screen (CellTiter-Glo)
Format: cell-based, human
Settings: A704 (Kidney), 20 micromolar, 72 hrs
In short: as §1

| Compound | Percent Inhibition |
| --- | --- |
| O=c1c2cc(O)c(O)cc2oc2cc(O)cc(O)c12 [Ge-17] | 1% |

Tested on: HCC1395
Experiment: Cell panel screen (CellTiter-Glo)
Format: cell-based, human
Settings: HCC1395 (Breast), 20 micromolar, 72 hrs
In short: as §1

| Compound | Percent Inhibition |
| --- | --- |
| O=c1c2cc(O)c(O)cc2oc2cc(O)cc(O)c12 [Ge-17] | 38% |

Tested on: C3A
Experiment: Cell panel screen (CellTiter-Glo)
Format: cell-based, human
Settings: C3A (Liver), 20 micromolar, 72 hrs
In short: as §1

| Compound | Percent Inhibition |
| --- | --- |
| O=c1c2cc(O)c(O)cc2oc2cc(O)cc(O)c12 [Ge-17] | 33% |

Tested on: M059J
Experiment: Cell panel screen (CellTiter-Glo)
Format: cell-based, human
Settings: M059J (Brain), 20 micromolar, 72 hrs
In short: as §1

| Compound | Percent Inhibition |
| --- | --- |
| O=c1c2cc(O)c(O)cc2oc2cc(O)cc(O)c12 [Ge-17] | 63% |

Tested on: NCI-H2347
Experiment: Cell panel screen (CellTiter-Glo)
Format: cell-based, human
Settings: NCI-H2347 (Lung), 20 micromolar, 72 hrs
In short: as §1

| Compound | Percent Inhibition |
| --- | --- |
| O=c1c2cc(O)c(O)cc2oc2cc(O)cc(O)c12 [Ge-17] | 4% |

Tested on: CW-2
Experiment: Cell panel screen (CellTiter-Glo)
Format: cell-based, human
Settings: CW-2 (Colon), 20 micromolar, 72 hrs
In short: as §1

| Compound | Percent Inhibition |
| --- | --- |
| O=c1c2cc(O)c(O)cc2oc2cc(O)cc(O)c12 [Ge-17] | 25% |

Tested on: T47D
Experiment: Cell panel screen (CellTiter-Glo)
Format: cell-based, human
Settings: T47D (Breast), 20 micromolar, 72 hrs
In short: as §1

| Compound | Percent Inhibition |
| --- | --- |
| O=c1c2cc(O)c(O)cc2oc2cc(O)cc(O)c12 [Ge-17] | 48% |

Tested on: CCF-STTG1
Experiment: Cell panel screen (CellTiter-Glo)
Format: cell-based, human
Settings: CCF-STTG1 (Brain), 20 micromolar, 72 hrs
In short: as §1

| Compound | Percent Inhibition |
| --- | --- |
| O=c1c2cc(O)c(O)cc2oc2cc(O)cc(O)c12 [Ge-17] | 15% |

Tested on: RL95
Experiment: Cell panel screen (CellTiter-Glo)
Format: cell-based, human
Settings: RL95 (Uterus), 20 micromolar, 72 hrs
In short: as §1

| Compound | Percent Inhibition |
| --- | --- |
| O=c1c2cc(O)c(O)cc2oc2cc(O)cc(O)c12 [Ge-17] | 53% |

Tested on: HCC1569
Experiment: Cell panel screen (CellTiter-Glo)
Format: cell-based, human
Settings: HCC1569 (Breast), 20 micromolar, 72 hrs
In short: as §1

| Compound | Percent Inhibition |
| --- | --- |
| O=c1c2cc(O)c(O)cc2oc2cc(O)cc(O)c12 [Ge-17] | 16% |

Tested on: HT-1197
Experiment: Cell panel screen (CellTiter-Glo)
Format: cell-based, human
Settings: HT-1197 (Urinary bladder), 20 micromolar, 72 hrs
In short: as §1

| Compound | Percent Inhibition |
| --- | --- |
| O=c1c2cc(O)c(O)cc2oc2cc(O)cc(O)c12 [Ge-17] | 16% |

Tested on: ZR-75-30
Experiment: Cell panel screen (CellTiter-Glo)
Format: cell-based, human
Settings: ZR-75-30 (Breast), 20 micromolar, 72 hrs
In short: as §1

| Compound | Percent Inhibition |
| --- | --- |
| O=c1c2cc(O)c(O)cc2oc2cc(O)cc(O)c12 [Ge-17] | 6% |

Tested on: NCI-H1694
Experiment: Cell panel screen (CellTiter-Glo)
Format: cell-based, human
Settings: NCI-H1694 (Lung), 20 micromolar, 72 hrs
In short: as §1

| Compound | Percent Inhibition |
| --- | --- |
| O=c1c2cc(O)c(O)cc2oc2cc(O)cc(O)c12 [Ge-17] | 99% |

Tested on: SW13
Experiment: Cell panel screen (CellTiter-Glo)
Format: cell-based, human
Settings: SW13 (Adrenal gland), 20 micromolar, 72 hrs
In short: as §1

| Compound | Percent Inhibition |
| --- | --- |
| O=c1c2cc(O)c(O)cc2oc2cc(O)cc(O)c12 [Ge-17] | 8% |

Tested on: Panc 03.27
Experiment: Cell panel screen (CellTiter-Glo)
Format: cell-based, human
Settings: Panc 03.27 (Pancreas), 20 micromolar, 72 hrs
In short: as §1

| Compound | Percent Inhibition |
| --- | --- |
| O=c1c2cc(O)c(O)cc2oc2cc(O)cc(O)c12 [Ge-17] | 20% |

Tested on: C8166
Experiment: Cell panel screen (CellTiter-Glo)
Format: cell-based, human
Settings: C8166 (Leukemia), 20 micromolar, 72 hrs
In short: as §1

| Compound | Percent Inhibition |
| --- | --- |
| O=c1c2cc(O)c(O)cc2oc2cc(O)cc(O)c12 [Ge-17] | 62% |

Tested on: BT-474
Experiment: Cell panel screen (CellTiter-Glo)
Format: cell-based, human
Settings: BT-474 (Breast), 20 micromolar, 72 hrs
In short: as §1

| Compound | Percent Inhibition |
| --- | --- |
| O=c1c2cc(O)c(O)cc2oc2cc(O)cc(O)c12 [Ge-17] | -7% |

Tested on: NCI-H1770
Experiment: Cell panel screen (CellTiter-Glo)
Format: cell-based, human
Settings: NCI-H1770 (Lung), 20 micromolar, 72 hrs
In short: as §1

| Compound | Percent Inhibition |
| --- | --- |
| O=c1c2cc(O)c(O)cc2oc2cc(O)cc(O)c12 [Ge-17] | 72% |

Tested on: MSTO-211-H
Experiment: Cell panel screen (CellTiter-Glo)
Format: cell-based, human
Settings: MSTO-211-H (Lung), 20 micromolar, 72 hrs
In short: as §1

| Compound | Percent Inhibition |
| --- | --- |
| O=c1c2cc(O)c(O)cc2oc2cc(O)cc(O)c12 [Ge-17] | 74% |

Tested on: Colo 205
Experiment: Cell panel screen (CellTiter-Glo)
Format: cell-based, human
Settings: Colo 205, 20 micromolar, 72 hrs
In short: as §1

| Compound | Percent Inhibition |
| --- | --- |
| O=c1c2cc(O)c(O)cc2oc2cc(O)cc(O)c12 [Ge-17] | 3% |

Tested on: HEC-1-A
Experiment: Cell panel screen (CellTiter-Glo)
Format: cell-based, human
Settings: HEC-1-A (Uterus), 20 micromolar, 72 hrs
In short: as §1

| Compound | Percent Inhibition |
| --- | --- |
| O=c1c2cc(O)c(O)cc2oc2cc(O)cc(O)c12 [Ge-17] | 51% |

Tested on: Bel-7402
Experiment: Cell panel screen (CellTiter-Glo)
Format: cell-based, human
Settings: Bel-7402 (Liver), 20 micromolar, 72 hrs
In short: as §1

| Compound | Percent Inhibition |
| --- | --- |
| O=c1c2cc(O)c(O)cc2oc2cc(O)cc(O)c12 [Ge-17] | 7% |

Tested on: BT-549
Experiment: Cell panel screen (CellTiter-Glo)
Format: cell-based, human
Settings: BT-549 (Breast), 20 micromolar, 72 hrs
In short: as §1

| Compound | Percent Inhibition |
| --- | --- |
| O=c1c2cc(O)c(O)cc2oc2cc(O)cc(O)c12 [Ge-17] | 40% |

Tested on: NCI-H524
Experiment: Cell panel screen (CellTiter-Glo)
Format: cell-based, human
Settings: NCI-H524 (Lung), 20 micromolar, 72 hrs
In short: as §1

| Compound | Percent Inhibition |
| --- | --- |
| O=c1c2cc(O)c(O)cc2oc2cc(O)cc(O)c12 [Ge-17] | 47% |

Tested on: HGC-27
Experiment: Cell panel screen (CellTiter-Glo)
Format: cell-based, human
Settings: HGC-27 (Stomach), 20 micromolar, 72 hrs
In short: as §1

| Compound | Percent Inhibition |
| --- | --- |
| O=c1c2cc(O)c(O)cc2oc2cc(O)cc(O)c12 [Ge-17] | 55% |

Tested on: ChaGo-K-1
Experiment: Cell panel screen (CellTiter-Glo)
Format: cell-based, human
Settings: ChaGo-K-1 (Lung), 20 micromolar, 72 hrs
In short: as §1

| Compound | Percent Inhibition |
| --- | --- |
| O=c1c2cc(O)c(O)cc2oc2cc(O)cc(O)c12 [Ge-17] | 22% |

Tested on: TCCSUP
Experiment: Cell panel screen (CellTiter-Glo)
Format: cell-based, human
Settings: TCCSUP (Urinary bladder), 20 micromolar, 72 hrs
In short: as §1

| Compound | Percent Inhibition |
| --- | --- |
| O=c1c2cc(O)c(O)cc2oc2cc(O)cc(O)c12 [Ge-17] | 61% |

Tested on: NCI-H28
Experiment: Cell panel screen (CellTiter-Glo)
Format: cell-based, human
Settings: NCI-H28 (Lung), 20 micromolar, 72 hrs
In short: as §1

| Compound | Percent Inhibition |
| --- | --- |
| O=c1c2cc(O)c(O)cc2oc2cc(O)cc(O)c12 [Ge-17] | 9% |

Tested on: HCC1937
Experiment: Cell panel screen (CellTiter-Glo)
Format: cell-based, human
Settings: HCC1937 (Breast), 20 micromolar, 72 hrs
In short: as §1

| Compound | Percent Inhibition |
| --- | --- |
| O=c1c2cc(O)c(O)cc2oc2cc(O)cc(O)c12 [Ge-17] | 65% |

Tested on: HCC1599
Experiment: Cell panel screen (CellTiter-Glo)
Format: cell-based, human
Settings: HCC1599 (Breast), 20 micromolar, 72 hrs
In short: as §1

| Compound | Percent Inhibition |
| --- | --- |
| O=c1c2cc(O)c(O)cc2oc2cc(O)cc(O)c12 [Ge-17] | 79% |

Tested on: T98G
Experiment: Cell panel screen (CellTiter-Glo)
Format: cell-based, human
Settings: T98G (Brain), 20 micromolar, 72 hrs
In short: as §1

| Compound | Percent Inhibition |
| --- | --- |
| O=c1c2cc(O)c(O)cc2oc2cc(O)cc(O)c12 [Ge-17] | 54% |
